Laboratory results reported in patent publication US20250066325A1, “DIRECTED DEGRON MOLECULES AND APPLICATIONS THEREOF” (The Brigham and Women's Hospital, Inc., priority 2021, published 2025).
Entries after “also recorded” stand apart in the source; their conditions may differ.

Legend:
Format in all cases: cell-based
ZFP91 = biological target: T1, ZFP91 (Homo sapiens, UniProt Q96JP5+Q96SW2); assay: Immunoblot of endogenous ZF protein ZFP91; settings: for degradation potency for ZFP91 compared with pomalidomide (immunoblot): MM1.S cells; for off-target degradation of endogenous ZFP91 (immunoblot): dose-dependent
T1 construct: Immunoblots for endogenous ZF proteins ZFP91 and IKZF3 in MM1.S cells; endogenous in cells; host or cells: JURKAT, MM1.S, SU-DHL-1, H2228
Experimental: (§1) Western blot analysis. Lysates of cells treated with different compounds were collected with ice-cold M-PER™ Mammalian Protein Extraction Reagent (ThermoFisher Scientific, 78501) with freshly added phosphatase (Sigma-Aldrich, 04906837001) and protease (Sigma-Aldrich, 04693124001) inhibitors following the manufacturer's instructions. Next, 20-50 μg of proteins were fractionated with NuPAGE™ 4-12% Bis-Tris gels (ThermoFisher Scientific, NP0335BOX) then transferred onto nitrocellulose membranes using iBot™ Transfer Stacks (ThermoFisher Scientific, IB23002) following the manufacturer's instructions. Membranes were then stained with primary antibodies in 1:1000 dilutions and secondary fluorescent antibodies in 1:3000 dilutions using iBind™ Flex Fluorescent Detection Solution Kit (ThermoFisher Scientific, SLF2019) following the manufacturer's instructions.
(§2) Primary antibodies used in this study include ZFP91 (Bethyl Laboratories, A303-245A), IKZF3/Aiolos (D1C1E) (Cell Signaling, 15103S), CRBN (D8H3S) (Cell Signaling, 71810S), ALK(D5F3) XP (Cell Signaling, 3633S), phospho-ALK (Tyr1507) (D6F1V) (Cell Signaling, 14678S), β-actin (8H10D10) Mouse mAb (Cell Signaling, 3700S). Fluorescent secondary antibodies used in this study include IRDye 680RD goat anti-mouse IgG (LI-COR Biosciences, 926-68070) and IRDye 800CW goat anti-rabbit IgG (LI-COR Biosciences, 926-32211). Western blot detection was performed using an Odyssey CLx Imaging System (LI-COR Biosciences). Quantification of the relative area and density values of western blot bands were carried out using ImageJ v2.1.0 following the ImageJ User Guide for gel analysis (https://imagej.nih.gov/ij/docs/guide/). Quantified values were normalized by values for loading controls such as β-actin. For phospho NPM-ALK, quantified values were normalized by the values for total ALK.

IKZF3 = biological target: T2, IKZF3 (Homo sapiens, UniProt Q96SW2+Q9UKT9); assay: Immunoblot of endogenous ZF protein IKZF3; settings: for degradation potency for IKZF3 compared with pomalidomide (immunoblot): MM1.S cells; for off-target degradation of endogenous IKZF3 (immunoblot): JURKAT cells, dose-dependent
T2 construct: Immunoblots for endogenous ZF proteins ZFP91 and IKZF3 in MM1.S cells; endogenous in cells; host or cells: JURKAT, MM1.S
Experimental: as §1, §2

[1] = system: ZF degrons fused to eGFP in U2OS cells; assay: Automated high-content imaging assay of ZF degron-tagged eGFP degradation (off-target profiling); settings: U2OS ZF degron reporter cells, 24 hours, doses 4.3 nM to 20 μM
Excerpt: Development and validation of an off-target profiling platform for PROTACs. To profile the ZF degradation propensity of pomalidomide and its analogs, an automated high-content imaging assay was first developed (FIG. 1A). For this platform, 23-amino acid ZF degrons of 12 ZF proteins were selected that are reportedly degraded by pomalidomide and two ZFs that are not.^2 These ZF degrons were inserted into a lentiviral degradation reporter vector (cilantro 2) to compare the fluorescence of ZF-tagged enhanced green fluorescent protein (eGFP) to untagged mCherry with high-content imaging (FIG. 1A). With this assay, wherein compounds are scanned against the 14 stable cell lines containing our tagged ZF-proteins, dose-dependent degradation of ZF degron-tagged eGFP by pomalidomide was reliably detected with a robust readout (Z-prime value of 0.8) (FIG. 5). […] Unlike mass spectrometry, this reporter-based method is not limited by cell-type-specific expression levels of analyte proteins nor by the accessibility to ZFs in the context of full-length proteins that are engaged in protein complexes. […]
The fluorescence intensity of eGFP was normalized to that of mCherry for every cell. […] The degradation score was then calculated by taking the sum of the GFP degradation fractions across all doses for each compound. […]

SU-DH-L1 cells = assay: Cell viability assay (CellTiter-Glo); settings: for IC50: SU-DHL-1, SU-DH-L1 cells, 24 hours
Experimental: Cell Viability Assay. SU-DH-L1 cells were seeded in 30 μl of 8000 cells per well in 384-well plates pre-printed with 10 mM of the stock compounds in varying volumes using a Tecan D300e Digital Dispenser (Tecan). After 24 hours, cell viability was determined using a CellTiter-Glo Luminescent Cell Viability Assay (Promega, G7571) following the manufacturer's instructions. Dose-response curve fitting and IC50 quantification were determined with four parameter nonlinear regression analysis using GraphPad Prism v8.4.2.

MOLT4 and KELLY cells = assay: Global proteomic studies (TMT) of IMiDs in ZF protein-relevant cell lines; settings: 1 μM
Experimental: Global proteomic studies. To validate the results from the imagining-based experiments, Applicant performed proteomics studies in two ZF protein-relevant cell lines (MOLT4 and KELLY).^26 Briefly, Applicant treated the ZF protein-relevant cells (MOLT4 and KELLY) with IMiDs or PROTACs at 1 μM concentrations, and the protein lysates were prepared from the cells were digested, and labeled using a TMT-based quantification kit. Labeled samples were subjected to LC/MS on an Orbitrap Eclipse Tribrid mass spectrometer. Applicant used the Proteome Discoverer software pipeline and identified the final hits by searching against the uniport database.

[2] = listed as Thalidomide analog with amino group on C5 position

T1 sequence (Q96JP5 2-570 limits assumed): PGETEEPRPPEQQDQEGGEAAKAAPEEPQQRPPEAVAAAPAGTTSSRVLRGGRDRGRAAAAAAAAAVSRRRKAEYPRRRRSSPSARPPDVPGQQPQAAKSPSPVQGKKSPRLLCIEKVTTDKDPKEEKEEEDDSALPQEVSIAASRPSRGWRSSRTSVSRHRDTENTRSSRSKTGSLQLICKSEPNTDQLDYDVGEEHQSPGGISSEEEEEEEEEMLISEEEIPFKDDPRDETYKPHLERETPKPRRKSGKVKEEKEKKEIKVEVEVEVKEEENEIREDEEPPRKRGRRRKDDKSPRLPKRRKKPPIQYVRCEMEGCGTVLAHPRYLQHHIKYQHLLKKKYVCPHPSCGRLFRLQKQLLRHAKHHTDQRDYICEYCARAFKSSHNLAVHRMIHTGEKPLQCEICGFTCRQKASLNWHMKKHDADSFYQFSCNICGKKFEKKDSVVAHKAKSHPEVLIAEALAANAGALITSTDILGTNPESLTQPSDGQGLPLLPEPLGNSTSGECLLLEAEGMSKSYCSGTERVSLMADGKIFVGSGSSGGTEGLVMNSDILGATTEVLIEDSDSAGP
T1 sequence (Q96SW2 whole entry): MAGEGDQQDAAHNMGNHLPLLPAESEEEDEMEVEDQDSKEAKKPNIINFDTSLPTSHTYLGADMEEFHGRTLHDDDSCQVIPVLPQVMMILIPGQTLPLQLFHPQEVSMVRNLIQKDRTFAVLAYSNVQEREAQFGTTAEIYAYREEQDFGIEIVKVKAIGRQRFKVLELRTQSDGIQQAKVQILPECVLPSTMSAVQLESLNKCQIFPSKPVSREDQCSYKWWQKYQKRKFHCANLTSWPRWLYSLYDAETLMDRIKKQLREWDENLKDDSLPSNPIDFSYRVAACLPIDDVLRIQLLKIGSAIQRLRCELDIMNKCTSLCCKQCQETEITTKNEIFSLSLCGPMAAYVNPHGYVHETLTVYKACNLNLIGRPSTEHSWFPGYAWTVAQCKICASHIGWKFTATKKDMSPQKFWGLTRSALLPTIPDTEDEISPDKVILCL
T1 sequence (Q16531 2-1140 partner limits assumed): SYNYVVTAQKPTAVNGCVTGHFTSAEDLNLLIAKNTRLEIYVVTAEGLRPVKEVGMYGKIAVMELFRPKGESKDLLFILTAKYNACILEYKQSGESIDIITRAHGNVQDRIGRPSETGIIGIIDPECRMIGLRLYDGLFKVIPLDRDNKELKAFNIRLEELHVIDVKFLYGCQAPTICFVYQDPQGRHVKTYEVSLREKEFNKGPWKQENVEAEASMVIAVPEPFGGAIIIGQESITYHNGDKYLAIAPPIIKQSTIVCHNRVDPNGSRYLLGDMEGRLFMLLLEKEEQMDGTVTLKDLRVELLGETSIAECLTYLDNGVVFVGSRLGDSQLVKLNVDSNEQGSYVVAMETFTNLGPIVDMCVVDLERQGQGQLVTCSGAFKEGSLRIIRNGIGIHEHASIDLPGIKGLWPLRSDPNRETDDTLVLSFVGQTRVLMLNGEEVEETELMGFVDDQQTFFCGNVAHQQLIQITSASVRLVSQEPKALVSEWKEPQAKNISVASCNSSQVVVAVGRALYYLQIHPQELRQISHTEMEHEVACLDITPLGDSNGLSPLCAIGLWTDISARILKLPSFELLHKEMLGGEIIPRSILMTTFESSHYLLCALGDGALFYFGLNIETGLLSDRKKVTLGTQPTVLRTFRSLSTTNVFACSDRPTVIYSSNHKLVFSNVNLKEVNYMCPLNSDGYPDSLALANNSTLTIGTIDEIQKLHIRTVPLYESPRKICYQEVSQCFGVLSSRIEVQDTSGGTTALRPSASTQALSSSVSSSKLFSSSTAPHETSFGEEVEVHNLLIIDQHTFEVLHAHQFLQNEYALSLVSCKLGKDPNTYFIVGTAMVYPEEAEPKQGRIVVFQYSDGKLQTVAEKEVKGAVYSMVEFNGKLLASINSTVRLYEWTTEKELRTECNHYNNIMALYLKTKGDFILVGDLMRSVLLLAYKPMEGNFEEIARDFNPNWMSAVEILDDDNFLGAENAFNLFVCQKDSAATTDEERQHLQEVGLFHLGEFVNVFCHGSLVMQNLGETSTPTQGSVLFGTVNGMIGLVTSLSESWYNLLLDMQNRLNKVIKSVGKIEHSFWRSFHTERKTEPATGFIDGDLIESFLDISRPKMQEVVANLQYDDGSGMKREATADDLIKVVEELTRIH
T2 sequence (Q9UKT9 whole entry): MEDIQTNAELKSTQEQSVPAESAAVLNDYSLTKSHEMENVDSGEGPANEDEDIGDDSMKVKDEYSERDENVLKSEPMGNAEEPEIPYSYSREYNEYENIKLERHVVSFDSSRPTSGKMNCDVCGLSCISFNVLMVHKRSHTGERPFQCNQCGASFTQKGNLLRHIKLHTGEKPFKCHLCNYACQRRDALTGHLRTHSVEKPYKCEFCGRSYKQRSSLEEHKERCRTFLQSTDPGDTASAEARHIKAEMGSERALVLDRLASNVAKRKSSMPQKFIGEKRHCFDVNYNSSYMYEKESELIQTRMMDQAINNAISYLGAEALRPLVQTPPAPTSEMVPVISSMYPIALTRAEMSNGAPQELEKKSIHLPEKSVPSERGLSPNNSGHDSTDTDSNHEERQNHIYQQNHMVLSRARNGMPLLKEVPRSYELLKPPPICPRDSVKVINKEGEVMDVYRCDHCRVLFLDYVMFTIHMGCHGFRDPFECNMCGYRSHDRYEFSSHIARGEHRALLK
T2 sequence (Q96SW2 whole entry): as the sequence (Q96SW2 whole entry) above
T2 sequence (Q16531 2-1140 partner limits assumed): as the sequence (Q16531 2-1140 partner limits assumed) above

Row | off-target degradation of endogenous ZFP91 (immunoblot) (ZFP91; JURKAT cells) | off-target degradation of endogenous IKZF3 (immunoblot) (IKZF3) | SMILES | off-target degradation of ZF degron-tagged eGFP [1] | IC50 (SU-DH-L1 cells; Homo sapiens, Example 1) [nM] | other results
1 | off-target degradation | off-target degradation | Cc1cc(Nc2ncc(Cl)c(Nc3ccccc3S(=O)(=O)C(C)C)n2)c(OC(C)C)cc1C1CCN(CC(=O)NCCNc2cccc3c2C(=O)N(C2CCC(=O)NC2=O)C3=O)CC1 (stereo not shown) [MS4078] | high level of off-target ZF degradation; also recorded: ZNF517, ZNF654, ZNF276, ZNF653, and PATZ1 | 195 | off-target degradation of endogenous ZFP91 (immunoblot) (ZFP91; SU-DHL-1 and H2228 cell lines): off-target degradation; EC50 (SU-DH-L1 cells; Homo sapiens, SU-DHL-1 cells, Example 3 numbering): 195 nM; fold lowering of potency relative to ceritinib (SU-DH-L1 cells; IC50 ratio, Example 1): 2.8 fold
2 | off-target degradation | off-target degradation | CC[C@H](C(=O)N1CCCC[C@H]1C(=O)O[C@H](CCc1ccc(OC)c(OC)c1)c1ccccc1OCC(=O)NCCCCCCOc1cccc2c1C(=O)N(C1CCC(=O)NC1=O)C2=O)c1cc(OC)c(OC)c(OC)c1 (stereo partly shown) [dTAG-13] |  |  | 

The remaining lines, values behind:

Row | SMILES | off-target degradation of endogenous ZFP91 (immunoblot) (ZFP91; JURKAT cells) | off-target degradation of endogenous IKZF3 (immunoblot) (IKZF3) | off-target degradation of ZF degron-tagged eGFP [1] | IC50 (SU-DH-L1 cells; Homo sapiens, Example 1) [nM] | other results
3 | Nc1ccc2c(c1)C(=O)N(C1CCC(=O)NC1=O)C2=O (stereo not shown) [5-aminothalidomide] |  |  |  |  | degradation potency for ZFP91 compared with pomalidomide (immunoblot) (ZFP91): decrease in overall degradation potency; degradation potency for ZFP91 compared with pomalidomide (immunoblot) (ZFP91; [2]): decrease in the potency; degradation potency for IKZF3 compared with pomalidomide (immunoblot) (IKZF3): decrease in overall degradation potency; degradation potency for IKZF3 compared with pomalidomide (immunoblot) (IKZF3; [2]): decrease in the potency
4 | Nc1cccc2c1C(=O)N(C1CCC(=O)NC1=O)C2=O (stereo not shown) [Pomalidomide] |  |  | degraded all 12 ZF degrons |  | off-target profile in global proteomics (MOLT4 and KELLY cells): exhibited the commonly reported off-targets
5 | Cc1cc(Nc2ncc(Cl)c(Nc3ccccc3S(=O)(=O)C(C)C)n2)c(OC(C)C)cc1C1CCNCC1 [ceritinib] |  |  |  | 69.3 | 
